Source: ChEMBL document CHEMBL3886282, “N-myristoyl transferase inhibitors” (2015)

Tests used:
[1] = target: T1, Glycylpeptide N-tetradecanoyltransferase (Leishmania major, UniProt Q4Q5S8); test: Enzyme Inhibition Assay: Measurements were performed using a modification of the scintillation proximity assay platform described previously by Georgopapadakou, N. H. et al. (22nd International Congress on Chemotherapy, 2001, Abstract P16.001). Compounds were solubilised in DMSO at a top concentration of 10 mM and serially diluted in half log steps to achieve a range of final assay concentrations …
T1 sequence (Q4Q5S8 whole entry): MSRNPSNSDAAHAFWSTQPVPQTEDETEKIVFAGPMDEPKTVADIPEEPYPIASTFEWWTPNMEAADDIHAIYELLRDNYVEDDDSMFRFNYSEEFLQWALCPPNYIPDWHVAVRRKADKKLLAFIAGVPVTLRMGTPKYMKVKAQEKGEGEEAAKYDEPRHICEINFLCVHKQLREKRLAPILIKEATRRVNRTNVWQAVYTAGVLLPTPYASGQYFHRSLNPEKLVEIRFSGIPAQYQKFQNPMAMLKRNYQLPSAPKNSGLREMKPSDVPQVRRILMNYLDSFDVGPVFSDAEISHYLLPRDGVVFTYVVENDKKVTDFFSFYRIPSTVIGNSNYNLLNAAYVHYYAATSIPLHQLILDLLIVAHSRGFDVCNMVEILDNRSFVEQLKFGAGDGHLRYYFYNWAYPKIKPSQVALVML

[2] = target: T2, Glycylpeptide N-tetradecanoyltransferase 1 (Homo sapiens, UniProt P30419); test: as above
T2 sequence (P30419 whole entry): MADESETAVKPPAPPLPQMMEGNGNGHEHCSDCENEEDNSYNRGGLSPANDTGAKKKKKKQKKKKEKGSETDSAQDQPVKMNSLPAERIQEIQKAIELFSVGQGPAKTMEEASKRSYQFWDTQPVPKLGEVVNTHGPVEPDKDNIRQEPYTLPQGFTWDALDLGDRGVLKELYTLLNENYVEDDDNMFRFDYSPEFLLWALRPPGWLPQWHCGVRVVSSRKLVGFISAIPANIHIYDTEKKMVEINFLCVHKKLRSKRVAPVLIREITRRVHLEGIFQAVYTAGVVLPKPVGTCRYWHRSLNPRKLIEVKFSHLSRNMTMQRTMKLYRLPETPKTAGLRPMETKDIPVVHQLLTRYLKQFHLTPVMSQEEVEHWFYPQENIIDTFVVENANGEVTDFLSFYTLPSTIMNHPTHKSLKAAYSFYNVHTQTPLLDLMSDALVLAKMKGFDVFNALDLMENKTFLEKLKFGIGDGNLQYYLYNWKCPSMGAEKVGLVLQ

Cc1nn(C)c(C)c1N(C(F)F)S(=O)(=O)c1c(Cl)cc(CCCOC2CC(C)(C)N(C)C(C)(C)C2)cc1Cl
IC50 [1]: 40 nM | IC50 [2]: > 1000 nM

Cc1nn(C)c(C)c1N(C(F)F)[S+](=O)([O-])c1c(Cl)cc(Br)cc1Cl
IC50 [1]: > 1000 nM | IC50 [2]: > 1000 nM
